Entries after “also recorded” stand apart in the source; their conditions may differ.
Columns and labels:
[1] = biological target: T1, hPRB (Homo sapiens, UniProt P06401); assay: PR transactivation assay (GRE2-Luc) in HEK293T cells transiently expressing hPRB; format: cell-based; design: expressed in transfected cells; host or cells: HEK 293T
T1 sequence (P06401 1-933): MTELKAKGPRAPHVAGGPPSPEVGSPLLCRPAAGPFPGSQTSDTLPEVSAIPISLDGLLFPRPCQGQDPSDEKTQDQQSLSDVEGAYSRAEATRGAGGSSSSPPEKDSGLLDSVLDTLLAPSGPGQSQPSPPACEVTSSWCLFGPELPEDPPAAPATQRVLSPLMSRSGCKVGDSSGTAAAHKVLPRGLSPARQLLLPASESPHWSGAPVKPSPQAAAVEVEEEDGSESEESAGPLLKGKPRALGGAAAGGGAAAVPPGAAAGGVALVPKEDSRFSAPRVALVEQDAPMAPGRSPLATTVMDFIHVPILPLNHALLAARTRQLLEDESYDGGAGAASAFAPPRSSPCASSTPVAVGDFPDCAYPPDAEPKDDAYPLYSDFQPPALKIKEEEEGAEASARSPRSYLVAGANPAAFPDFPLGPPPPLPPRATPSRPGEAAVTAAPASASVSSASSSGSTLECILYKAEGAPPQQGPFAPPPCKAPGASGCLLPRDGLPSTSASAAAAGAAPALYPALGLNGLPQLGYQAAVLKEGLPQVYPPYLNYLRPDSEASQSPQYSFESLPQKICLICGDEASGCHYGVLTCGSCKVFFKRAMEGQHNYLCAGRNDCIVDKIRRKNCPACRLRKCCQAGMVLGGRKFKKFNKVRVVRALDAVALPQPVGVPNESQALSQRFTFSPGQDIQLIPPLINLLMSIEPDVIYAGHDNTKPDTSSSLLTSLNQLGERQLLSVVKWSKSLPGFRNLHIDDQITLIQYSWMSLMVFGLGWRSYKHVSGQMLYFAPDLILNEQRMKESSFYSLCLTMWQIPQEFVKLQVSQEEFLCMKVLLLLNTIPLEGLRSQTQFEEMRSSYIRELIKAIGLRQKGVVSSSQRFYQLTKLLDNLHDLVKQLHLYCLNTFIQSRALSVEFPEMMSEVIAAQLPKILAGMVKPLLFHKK
Method: PR Transactivation Assays in HEK 293T.
HEK 293T cells were routinely cultured in a high-glucose DMEM medium (Invitrogene, Cergy Pontoise, France), 20 mM HEPES, 2 mM glutamine, 1× non essential amino acids, 100 U/mL penicillin and 100 μg/mL streptomycin supplemented with 10% foetal calf serum (FCS) in a humidified atmosphere at 37° C. and with 5% CO2. One day before transfection, the cells were seeded at 3×10^6 cells/[…] diameter culture Petri dish and cultured overnight in the same medium. Six hours before transfection, the FCS supplemented medium was replaced by the same medium supplemented with 10% dextran-charcoal treated FCS. Transfections were carried out using the calcium phosphate precipitation method. The calcium phosphate precipitate was prepared with 0.5 μg pchPRB (Petit-Topin, et al Mol Pharmacol, 2009, 75, 1317), 7 μg reporter vector (GRE2-Luc from A. Biola-Vidamment and M. Pallardy) and 1 μg of pcβgal for an internal transfection control, in 1 mL 140 mM NaCl, 0.75 mM Na2HPO4, 25 mM HEPES, 125 mM CaCl2 pH 7.05 and added to the cells 30 minutes later. After 16 h incubation, the transfected cells were washed with PBS containing 2.5 mM EDTA, trypsinized and pooled. The transfected cells were replated in 24-well plates (100.000 transfected cells/well). […] Cells were lysed in 300 μl PBS 1×, 25 mM glycylglycine, 4 mM EDTA, 15% glycerol, 1% triton X-100, 15 mM MgSO4, pH 7.8 supplemented with 2 mM β-mercaptoethanol. The luciferase activities were quantified by using a Mithras LB940 reader microplates (Berthold).
The APRn “agonist efficacy” was determined from the following formula:
Agonist efficacy=[luciferase activity]1/[luciferase activity]2×100
The APRn “antagonist efficacy” was calculated from the following formula:
Antagonist efficacy=100−[luciferase activity]1/[luciferase activity]2×100
The results are the mean±SEM of three to five independent experiments.
All the synthesized APRn were classified in 4 series depending on the nature of their C3 substituent (R1/R′1 groups). The first one (series 1) includes APRn with no C3 substituent (R1═R′1═H) whereas series 2, 3 and 4 are related to APRn bearing a methoxyl (R1═OMe), a hydroxyl (R1═OH) and a fluorine atom (R1═F), respectively. The agonist/antagonist activities of APRn were determined either in human HEK293T cells transiently expressing hPRB or in human MDA-MB-231 iPRAB cells conditionally expressing hPRB, by using a luciferase reporter gene placed under the control of a glucocorticoid response element (GRE2-Luc). The APRn “agonist efficacy” was determined from the luciferase activity measured in the presence of APRn (1 μM). […] The “agonist efficacy” and “antagonist efficacy” are expressed as defined in the biological protocols section.

[2] = series 2-4, stated for both HEK293T and MDA-MB-231 iPRAB cells, APRn 1 μM, FIGS. 3-8
[3] = series 1 (no C3 substituent), HEK293T, APRn 1 μM, FIG. 1

CC1CCC2C3CCC4=CC(=O)CC[C@]4(C)C3CC[C@]2(C)[C@H]1F (stereo partly drawn)
melting point: 170 to 171 °C

CO[C@H]1CC[C@@]2(C)C(=CC[C@H]3[C@@H]4CC[C@H](C(C)O)[C@@]4(C)CC[C@@H]32)C1 (mixture of isomers) [APR-27, 3β-Methoxypregn-5-en-20-ol]
hPRB agonist/antagonist character (in words) [1, 2]: antagonist character without any agonist activity | melting point: 124 to 125 °C

CO[C@H]1CC[C@@]2(C)[C@@H](CC[C@@H]3[C@@H]2CC[C@]2(C)[C@@H](C(C)O)CC[C@@H]32)C1 (mixture of isomers) [APR-28, 3β-Methoxy-5α-pregnan-20-ol]
hPRB agonist/antagonist character (in words) [1, 2]: antagonist character without any agonist activity

CC(O)[C@H]1CC[C@H]2[C@@H]3CC[C@H]4C[C@@H](O)CC[C@]4(C)[C@H]3CC[C@]12C (mixture of isomers) [APR-29, 5α-Pregnan-3β,20-diol]
hPRB agonist/antagonist character (in words) [1, 2]: able to activate hPRB, but their agonist efficacies are low

CC1CCC2C3CCC4=CC(O)CC[C@]4(C)C3CC[C@]2(C)[C@H]1F (single isomer, unassigned) [APR-07, 17aβ-Fluoro-17α-methyl-D-homo-pregn-4-en-3-ol]
hPRB agonist/antagonist character (in words) [1, 2]: most potent hPRB antagonist in this series | melting point: 125 to 126 °C

CC(=O)[C@H]1CC[C@H]2[C@@H]3CC[C@H]4CCCC[C@]4(C)[C@H]3CC[C@]12C [APR-01, 5α-pregnan-20-one]
antagonist efficacy ([1]; HEK293T, APRn 1 μM plus progesterone 1 nM, FIG. 1): 48% | efficacy to activate hPRB (agonist efficacy) ([1]; HEK293T, APRn 1 μM, relative to 1 nM progesterone, FIG. 1): 30% | hPRB agonist/antagonist character (in words) [1, 3]: partial hPRB agonist

CO[C@H]1CC[C@@]2(C)C(=CC[C@H]3[C@@H]4CC[C@H](C(C)=O)[C@@]4(C)CC[C@@H]32)C1 [APR-02, 3β-Methoxypregn-5-en-20-one]
hPRB agonist/antagonist character (in words) [1, 2]: most potent molecules | hPRB agonist/antagonist character (in words) ([1]; series 2-4, stated for both HEK293T and MDA-MB-231 iPRAB cells, APRn 1 μM, FIGS. 3-8, listed as APR2): antagonist character without any agonist activity

CC1CCC2C3CC=C4CC5(CC[C@]4(C)C3CC[C@]2(C)[C@H]1F)OCCO5 (stereo partly drawn) [APR-05, 17aβ-Fluoro-17α-methyl-D-homo-3-ethylenedioxo-5-androstene]
melting point: 146 to 147 °C

CC1CCC2C3CC=C4C=CCC[C@]4(C)C3CC[C@]2(C)[C@H]1F (stereo partly drawn) [APR-08, 17aβ-Fluoro-17α-methyl-D-homo-pregn-3,5-diene]
hPRB agonist/antagonist character (in words) [1, 3]: partial antagonist | hPRB agonist/antagonist character (in words) ([1]; series 1 (no C3 substituent), HEK293T, APRn 1 μM, FIG. 1, listed as APR-8): full antagonists

C[C@H](O)[C@H]1CCC2C3CCC4CCCC[C@]4(C)C3CC[C@@]21C (stereo partly drawn) [APR-10, 20-Hydroxypregnane]
hPRB agonist/antagonist character (in words) [1, 3]: full antagonists

C[C@H](O)[C@H]1CCC2C3CC=C4C=CCC[C@]4(C)C3CC[C@@]21C (stereo partly drawn) [APR-11, pregn-3,5-dien-20-ol]
hPRB agonist/antagonist character (in words) [1, 3]: full antagonists | melting point: 103 to 104 °C

CC(=O)[C@H]1CC[C@H]2[C@@H]3CC=C4C=CCC[C@]4(C)[C@H]3CC[C@]12C [APR-12, Pregn-3,5-dien-20-one]
hPRB agonist/antagonist character (in words) [1, 3]: partial antagonist | melting point: 135 to 136 °C

CC(=O)O[C@@H](C)[C@H]1CC[C@H]2[C@@H]3CC[C@H]4CCCC[C@]4(C)[C@H]3CC[C@]12C [APR-13, 20-Acetoxy-5α-pregnane]
hPRB agonist/antagonist character (in words) [1, 3]: full antagonists

C[C@]12CCCC[C@@H]1CC[C@@H]1[C@@H]2CC[C@]2(C)[C@@H](O)CC[C@@H]12 [APR-14, 5α-Androstan-17β-ol]
hPRB agonist/antagonist character (in words) [1, 3]: full antagonists

CC(=O)[C@H]1CC[C@H]2[C@@H]3CC=C4C[C@@H](O)CC[C@]4(C)[C@H]3CC[C@]12C [APR-15, 3β-Hydroxypregn-5-en-20-one]
hPRB agonist/antagonist character (in words) [1, 2]: able to activate hPRB, but their agonist efficacies are low

CC(=O)[C@H]1CC[C@H]2[C@@H]3CC[C@H]4C[C@@H](O)CC[C@]4(C)[C@H]3CC[C@]12C [APR-20, 3β-Hydroxy-5α-pregnan-20-one]
hPRB agonist/antagonist character (in words) [1, 2]: able to activate hPRB, but their agonist efficacies are low

C#CC(C)(O)[C@H]1CC[C@H]2[C@@H]3CC=C4C[C@@H](F)CC[C@]4(C)[C@H]3CC[C@]12C (stereo partly drawn) [APR-21, 20-Ethynyl-3β-fluoropregn-5-en-20-ol]
melting point: 213 to 214 °C

CO[C@H]1CC[C@@]2(C)[C@@H](CC[C@@H]3[C@@H]2CC[C@]2(C)[C@@H](C(C)=O)CC[C@@H]32)C1 [APR-22, 3β-Methoxy-5α-pregnan-20-one]
hPRB agonist/antagonist character (in words) [1, 2]: antagonist character without any agonist activity; also recorded: most potent molecules | melting point: 125 to 126 °C

C[C@]12CCCC[C@@H]1CC[C@@H]1[C@@H]2CC[C@]2(C)C(=O)CC[C@@H]12 [APR-23, 5α-Androstan-17-one]
hPRB agonist/antagonist character (in words) [1, 3]: full antagonists | melting point: 120 to 121 °C

C[C@H](O)[C@H]1CC[C@H]2[C@@H]3CC=C4C[C@@H](F)CC[C@]4(C)[C@H]3CC[C@]12C [APR-24, 3β-Fluoropregn-5-en-20-ol]
hPRB agonist/antagonist character (in words) [1, 2]: efficient hPRB antagonists

C#CC(C)(O)[C@H]1CC[C@H]2[C@@H]3CC[C@H]4C[C@@H](F)CC[C@]4(C)[C@H]3CC[C@]12C (stereo partly drawn) [APR-26, 20-Ethynyl-3β-fluoro-5α-pregnan-20-ol]
melting point: 230 to 231 °C

C#CC(C)(O)[C@H]1CC[C@H]2[C@@H]3CC[C@H]4C[C@@H](OC)CC[C@]4(C)[C@H]3CC[C@]12C (stereo partly drawn) [APR-30, 20-Ethynyl-3β-methoxy-5α-pregnan-20-ol]
melting point: 168 to 169 °C

C[C@]12CC[C@H]3[C@@H](CC=C4C[C@@H](F)CC[C@@]43C)[C@@H]1CC[C@@H]2O [APR-41, 3β-Fluoro-androst-5-en-17β-ol]
melting point: 165 to 166 °C

C[C@]12CCC3C(CC=C4C[C@@H](O)CC[C@@H]43)C1CC[C@@H]2O (stereo partly drawn) [APR-48, 19-nor-Androst-5-en-3β,17β-diol]
hPRB agonist/antagonist character (in words) [1, 2]: Except for APR48, the molecules of this series behave as antagonists

C[C@]12CCC3C(CC[C@H]4CCCC[C@H]34)C1CC[C@@H]2O (stereo partly drawn) [APR-52, 19-nor-5-Androstan-17β-ol]
hPRB agonist/antagonist character (in words) [1, 3]: full antagonists

C#C[C@]1(O)CCC2C3CC[C@H]4CCCC[C@@H]4C3CC[C@@]21C (stereo partly drawn) [APR-56, 17α-Ethynyl-19-nor-5-androstan-17β-ol]
hPRB agonist/antagonist character (in words) [1, 3]: full antagonists

Source: patent US20130203718A1 (priority 2010, published 2013)
